Test results taken from patent US20220267281A1, “UNSATURATED HETEROCYCLOALKYL AND HETEROAROMATIC ACYL HYDRAZONE LINKERS, METHODS AND USES THEREOF” (priority 2019, published 2022).

Tested on: SKOV3 ovarian cells
Assay: Cytotoxicity of ADCs against SKOV3 cell lines (viable cells by ATP content, CellTiter-Glo)
Assay type: cell-based
Settings: SKOV3 ovarian cancer cells, 3 to 5 days incubation with ADC, % survival curve fit
Method: The cytotoxic activity of Trastuzumab ADCs of Formula (IV) was tested against SKOV3 ovarian cell lines
SKOV3 ovarian cells were incubated with the effectors for a period corresponding to 2 to 3 times their estimated doubling time and the amount of viable cells was determine by measuring ATP content in the wells. […] All ADCs were diluted in DPBS to 6× the highest concentration tested, followed by 10 3-fold serial dilutions in DPBS for a total of 11 concentration points. Each point was added to triplicate wells. DPBS was added in wells to measure the maximum growth. Cells were diluted at their appropriate seeding density (ranging from 150 to 1000 cells per well) in complete media supplemented with glutamine 2 mM, serum and antibiotic cocktail. […] Total ATP was measured using CellTiter-Glo™ reagent from Promega as recommended by the supplier. […] Signal output was measured on a luminescence plate reader (Envision™, Perkin Elmer) set at an integration time of 0.1 sec. […]
Each concentration point (S) was normalized to the negative control wells (NC) and expressed as % survival (NC-S/NC×100). Potency (IC50) and efficacy were calculated from a non-linear curve fit of the points versus log of the concentrations without constrain on the slope. Refined data were analysed using Prism™ software.

Q: With Synagis-SMCC-DM1: negative control ADC as the substance, how does the IC50 read?
A: The IC50 was 4.01 nM.
